In PubChem BioAssay AID328 (DTP/NCI, 2004):
“And” between values parts separate entries of the source, which are not always exact repeats. Equal values may be shown once. Inconclusive results and toxic doses are left out.

Test system: BDF1 mice, P388 leukemia ip, median survival T/C
Test: NCI In Vivo Anticancer Drug Screen. Data for tumor model P388 Leukemia (intraperitoneal) in B6D2F1 (BDF1) mice
Conditions: endpoint: median survival time, higher = longer survival
Summary of the method: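 Survival ratio, drug arm over vehicle arm, in mice with a transplanted tumour.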

[1] = dose: 100.0 mg/kg/injection, schedule: Q04DX003 (ip), vehicle: saline sonified
[2] = dose: 200.0 mg/kg/injection, schedule: Q04DX003 (ip), vehicle: saline sonified
[3] = dose: 200.0 mg/kg/injection, schedule: Q04DX003 (ip), vehicle: saline with Tween-80
[4] = dose: 400.0 mg/kg/injection, schedule: Q04DX003 (ip), vehicle: saline with Tween-80
[5] = dose: 100.0 mg/kg/injection, schedule: Q01DX009 (ip), vehicle: saline with Tween-80
[6] = dose: 200.0 mg/kg/injection, schedule: Q01DX009 (ip), vehicle: saline with Tween-80

## CC1CN1CC(O)C(O)CN1CC1C (stereo unspecified)
dose: 0.09 mg/kg/injection, schedule: Q04DX003 (ip), vehicle: saline
  T/C: 100 % of control
dose: 0.19 mg/kg/injection, schedule: Q04DX003 (ip), vehicle: saline
  T/C: 103 % of control
dose: 0.78 mg/kg/injection, schedule: Q01DX009 (ip), vehicle: saline
  T/C: 165 % of control
dose: 0.78 mg/kg/injection, schedule: Q04DX003 (ip), vehicle: saline
  T/C: 200 % of control
dose: 0.8 mg/kg/injection, schedule: Q01DX009 (ip), vehicle: saline with Tween-80
  T/C: 225 % of control
dose: 1.2 mg/kg/injection, schedule: Q01DX009 (ip), vehicle: saline with Tween-80
  T/C: 241 % of control
dose: 1.3 mg/kg/injection, schedule: Q04DX003 (ip), vehicle: saline
  T/C: 170 % of control
dose: 1.56 mg/kg/injection, schedule: Q01DX009 (ip), vehicle: saline
  T/C: 203 % of control
dose: 1.56 mg/kg/injection, schedule: Q04DX003 (ip), vehicle: saline
  T/C: 229 % of control and 181 % of control
dose: 1.8 mg/kg/injection, schedule: Q01DX009 (ip), vehicle: saline with Tween-80
  T/C: 250 % of control
dose: 2.0 mg/kg/injection, schedule: Q01DX009 (ip), vehicle: saline
  T/C: 250 % of control
dose: 3.0 mg/kg/injection, schedule: Q01DX009 (ip), vehicle: saline
  T/C: 250 % of control
dose: 3.12 mg/kg/injection, schedule: Q01DX009 (ip), vehicle: saline
  T/C: 203 % of control
dose: 3.12 mg/kg/injection, schedule: Q04DX003 (ip), vehicle: saline
  T/C: 222 % of control
dose: 3.3 mg/kg/injection, schedule: Q04DX003 (ip), vehicle: saline
  T/C: 236 % of control
dose: 4.5 mg/kg/injection, schedule: Q04DX003 (ip), vehicle: saline
  T/C: 200 % of control
dose: 5.0 mg/kg/injection, schedule: Q04DX003 (ip), vehicle: saline
  T/C: 295 % of control
dose: 6.25 mg/kg/injection, schedule: Q01DX009 (ip), vehicle: saline
  T/C: 95 % of control
dose: 6.25 mg/kg/injection, schedule: Q04DX003 (ip), vehicle: saline
  T/C: 231 % of control
dose: 6.6 mg/kg/injection, schedule: Q04DX003 (ip), vehicle: saline
  T/C: 259 % of control
dose: 10.0 mg/kg/injection, schedule: Q04DX003 (ip), vehicle: saline
  T/C: 86 % of control

## CC(C)c1oc(=O)cc2c1[C@@H](O)[C@H]1OC(=O)[C@@]3(C)[C@@H](O)[C@H]4O[C@H]4[C@@]2(C)[C@@H]13
dose: 15.0 mg/kg/injection, schedule: Q04DX003 (ip), vehicle: saline with Tween-80
  T/C: 115 % of control
dose: 30.0 mg/kg/injection, schedule: Q01DX001 (ip), vehicle: saline with Tween-80
  T/C: 104 % of control
dose: 30.0 mg/kg/injection, schedule: Q04DX003 (ip), vehicle: saline with Tween-80
  T/C: 97 % of control

## CCCCC(=O)NN(Cn1c(=S)sc2ccccc21)Cn1c(=S)sc2ccccc21
dose: 12.5 mg/kg/injection, schedule: Q01DX009 (ip), vehicle: Klucel (hydroxypropylcellulose) (HPC)
  T/C: 109 % of control
dose: 25.0 mg/kg/injection, schedule: Q01DX009 (ip), vehicle: Klucel (hydroxypropylcellulose) (HPC)
  T/C: 109 % of control
dose: 50.0 mg/kg/injection, schedule: Q01DX009 (ip), vehicle: Klucel (hydroxypropylcellulose) (HPC)
  T/C: 272 % of control

## CCC1=C(C)C(=O)C2CCCCC2C1=O (stereo unspecified)
[1]
  T/C: 100 % of control
[2]
  T/C: 100 % of control
dose: 400.0 mg/kg/injection, schedule: Q04DX003 (ip), vehicle: saline sonified
  T/C: 100 % of control

## Cc1c(-c2ccc(C(=N)N)cc2)oc(-c2ccc(C(=N)N)cc2)c1C
dose: 3.13 mg/kg/injection, schedule: Q01DX009 (ip), vehicle: saline with Tween-80
  T/C: 109 % of control

## CN(C)CCCNC(=O)c1ccc2c(c1O)C(=O)c1ccccc1C2=O
dose: 50.0 mg/kg/injection, schedule: Q01DX005 (ip), vehicle: saline
  T/C: 118 % of control

## [Cl][Rh][Cl].[NH-]c1ccc(S(=O)(=O)Nc2ccccn2)cc1.[NH-]c1ccc(S(=O)(=O)Nc2ccccn2)cc1.[NH-]c1ccc(S(=O)(=O)Nc2ccccn2)cc1.[NH-]c1ccc(S(=O)(=O)Nc2ccccn2)cc1
dose: 100.0 mg/kg/injection, schedule: Q04DX003 (ip), vehicle: saline with Tween-80
  T/C: 108 % of control
[3]
  T/C: 94 % of control
[4]
  T/C: 91 % of control

## CCOc1ccc(Br)cc1/C=C1\N=C(c2ccccc2)OC1=O
dose: 100.0 mg/kg/injection, schedule: Q04DX003 (ip), vehicle: Klucel (hydroxypropylcellulose) (HPC)
  T/C: 95 % of control
dose: 200.0 mg/kg/injection, schedule: Q04DX003 (ip), vehicle: Klucel (hydroxypropylcellulose) (HPC)
  T/C: 100 % of control
dose: 400.0 mg/kg/injection, schedule: Q04DX003 (ip), vehicle: Klucel (hydroxypropylcellulose) (HPC)
  T/C: 95 % of control

## CC(CCc1cccc2ccccc12)(C(=O)O)C(=O)O
[1]
  T/C: 100 % of control
[2]
  T/C: 91 % of control

## CCCCCCC(=O)O[C@H]1CC[C@H]2[C@@H]3CCC4=CC(=O)CC[C@]4(C)[C@H]3CC[C@]12C
dose: 25.0 mg/kg/injection, schedule: Q01DX009 (ip), vehicle: other
  T/C: 120 % of control
dose: 25.0 mg/kg/injection, schedule: Q04DX003 (ip), vehicle: other
  T/C: 100 % of control
dose: 50.0 mg/kg/injection, schedule: Q01DX009 (ip), vehicle: other
  T/C: 100 % of control
dose: 50.0 mg/kg/injection, schedule: Q04DX003 (ip), vehicle: other
  T/C: 100 % of control
dose: 66.0 mg/kg/injection, schedule: Q01DX009 (ip), vehicle: other
  T/C: 100 % of control
dose: 100.0 mg/kg/injection, schedule: Q01DX009 (ip), vehicle: other
  T/C: 100 % of control
dose: 100.0 mg/kg/injection, schedule: Q04DX003 (ip), vehicle: other
  T/C: 100 % of control
dose: 150.0 mg/kg/injection, schedule: Q01DX009 (ip), vehicle: other
  T/C: 90 % of control

## N#Cc1nc2c(nc1C#N)-c1ccccc1C2=O
dose: 6.0 mg/kg/injection, schedule: Q01DX009 (ip), vehicle: Klucel (hydroxypropylcellulose) (HPC)
  T/C: 100 % of control
dose: 6.25 mg/kg/injection, schedule: Q04DX003 (ip), vehicle: Klucel (hydroxypropylcellulose) (HPC)
  T/C: 100 % of control
dose: 12.0 mg/kg/injection, schedule: Q01DX009 (ip), vehicle: Klucel (hydroxypropylcellulose) (HPC)
  T/C: 107 % of control
dose: 12.5 mg/kg/injection, schedule: Q04DX003 (ip), vehicle: Klucel (hydroxypropylcellulose) (HPC)
  T/C: 108 % of control
dose: 25.0 mg/kg/injection, schedule: Q04DX003 (ip), vehicle: Klucel (hydroxypropylcellulose) (HPC)
  T/C: 104 % of control

## Clc1ccc2c(c1)C(Br)c1cc(Cl)cc(Cl)c1-2 (stereo unspecified)
[5]
  T/C: 108 % of control
[6]
  T/C: 87 % of control
[3]
  T/C: 87 % of control
[4]
  T/C: 87 % of control

## NC(=O)c1cc([N+](=O)[O-])c(Cl)c([N+](=O)[O-])c1
dose: 2.5 mg/kg/injection, schedule: Q01DX009 (ip), vehicle: Klucel (hydroxypropylcellulose) (HPC)
  T/C: 109 % of control
dose: 5.0 mg/kg/injection, schedule: Q01DX009 (ip), vehicle: Klucel (hydroxypropylcellulose) (HPC)
  T/C: 109 % of control
dose: 10.0 mg/kg/injection, schedule: Q01DX009 (ip), vehicle: Klucel (hydroxypropylcellulose) (HPC)
  T/C: 104 % of control and 105 % of control
dose: 10.0 mg/kg/injection, schedule: Q04DX003 (ip), vehicle: Klucel (hydroxypropylcellulose) (HPC)
  T/C: 100 % of control
dose: 40.0 mg/kg/injection, schedule: Q04DX003 (ip), vehicle: Klucel (hydroxypropylcellulose) (HPC)
  T/C: 90 % of control

## CCNc1ncc([N+](=O)[O-])c(Nc2ccccc2)n1
dose: 50.0 mg/kg/injection, schedule: Q01DX009 (ip), vehicle: saline with Tween-80
  T/C: 103 % of control
[5]
  T/C: 103 % of control
[6]
  T/C: 88 % of control

## CCN1C=C/C(=C\C=C/c2cc[n+](CC)c3ccccc23)c2ccccc21
dose: 0.13 mg/kg/injection, schedule: Q01DX009 (ip), vehicle: saline
  T/C: 113 % of control
dose: 0.25 mg/kg/injection, schedule: Q01DX009 (ip), vehicle: saline
  T/C: 160 % of control
dose: 0.27 mg/kg/injection, schedule: Q04DX003 (ip), vehicle: saline
  T/C: 115 % of control
dose: 0.4 mg/kg/injection, schedule: Q01DX009 (ip), vehicle: Klucel (hydroxypropylcellulose) (HPC)
  T/C: 150 % of control
dose: 0.4 mg/kg/injection, schedule: Q04DX003 (ip), vehicle: saline
  T/C: 100 % of control and 115 % of control
dose: 0.5 mg/kg/injection, schedule: Q01DX009 (ip), vehicle: saline
  T/C: 160 % of control
dose: 0.62 mg/kg/injection, schedule: Q01DX009 (ip), vehicle: Klucel (hydroxypropylcellulose) (HPC)
  T/C: 154 % of control
dose: 0.62 mg/kg/injection, schedule: Q04DX003 (ip), vehicle: saline
  T/C: 100 % of control and 110 % of control
dose: 0.66 mg/kg/injection, schedule: Q04DX003 (ip), vehicle: saline
  T/C: 154 % of control
dose: 0.82 mg/kg/injection, schedule: Q04DX003 (ip), vehicle: saline
  T/C: 155 % of control
dose: 44.0 micrograms/kg/injection, schedule: Q01DX009 (ip), vehicle: saline
  T/C: 108 % of control
